Where two headings read alike, the source gives them in different places.
Tests used:
[1] = system: SMN2 minigene (full length SMN2 minigene mRNA containing SMN2 exon 7); experiment: SMN2 minigene mRNA splicing RT-qPCR assay in cultured cells; assay type: cell-based, human; conditions: Homo sapiens, HEK293-H, read-out: EC1.5x for production of full length SMN2 mRNA
Method in brief: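 Read-out: full-length (exon 7-included) SMN2 minigene mRNA by multiplex RT-qPCR with GAPDH, efficiency-corrected (1+E)^−Ct, GAPDH-normalized and divided by vehicle. Stably transfected HEK293H cells, 24 h compound exposure, duplicates per concentration. Value is EC1.5x, reported as star ranges.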

[2] = system: Smn protein; experiment: Smn protein assay in cultured cells (SMN HTRF); assay type: cell-based, human; conditions: 48 hours; for maximum fold (Fold) increase of Smn protein: SMA patient fibroblast cells, 7-point concentration data, fold increase relative to vehicle control (SMN HTRF); for EC1.5x (concentration giving 1.5-fold Smn protein increase): SMA Type 1 patient fibroblast cells (GM03813), 7-point concentration curve, SMN HTRF, concentration producing 1.5 times Smn protein vs DMSO vehicle control, read-out: EC1.5x for Smn protein expression
Method in brief: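 Lysates in RIPA with protease inhibitors are incubated overnight at room temperature with HTRF anti-SMN antibodies. EC1.5x is derived from fold increase in ΔF over vehicle.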

[3] = HEK293H cells stably transfected with SMN2-A minigene, 24 hours, 7-point concentration curve, 1.5-fold relative to vehicle-treated cells

| melting point | Structure (SMILES) | EC (1.5-fold) [1, 3] | maximum fold (Fold) increase of Smn protein [2] | EC1.5x (concentration giving 1.5-fold Smn protein increase) [2] | EC (1.5-fold) ([1]; 24 h) |
| --- | --- | --- | --- | --- | --- |
| 141 to 145 °C | CC(C)NCc1ccc2cc(-c3cn4ccsc4n3)c(=O)oc2c1 [Compound 199, 3-(imidazo[2,1-b][1,3]thiazol-6-yl)-7-[(propan-2-ylamino)methyl]-2H-chromen-2-one] | 1 to 3 µM | ** (fold increase between >1.2 and ≤1.35) | – | – |
| 275 to 280 °C | Cc1cn2cc(-c3cc4ccc(N5CCN(C(C)C)CC5)cc4oc3=O)nc2cn1 [Compound 833, 3-(6-methylimidazo[1,2-a]pyrazin-2-yl)-7-[4-(propan-2-yl)piperazin-1-yl]-2H-chromen-2-one] | < 0.1 µM | ***** (fold increase >1.65) | < 300 nM | – |
| 235 to 238 °C | Cc1nc(Cl)cn2cc(-c3cc4ccc(N5CCN[C@@H](C)C5)cc4oc3=O)nc12 [Compound 713, 3-(6-chloro-8-methylimidazo[1,2-a]pyrazin-2-yl)-7-[(3S)-3-methylpiperazin-1-yl]-2H-chromen-2-one] | < 0.1 µM | *** (fold increase between >1.35 and ≤1.5) | < 300 nM | – |
| 170 to 172 °C | CCOc1cccc(-c2cc3ccc(N4CCN(C)CC4)cc3oc2=O)n1 [Compound 381, 3-(6-ethoxypyridin-2-yl)-7-(4-methylpiperazin-1-yl)-2H-chromen-2-one] | 1 to 3 µM | * (maximum fold increase of ≤1.2) | – | – |
| 243 to 245 °C | Cc1cc2cc(-c3cc4ccc(N5CCCN(C)CC5)cc4oc3=O)oc2c(C)n1 [Compound 775, 3-(5,7-dimethylfuro[2,3-c]pyridin-2-yl)-7-(4-methyl-1,4-diazepan-1-yl)-2H-chromen-2-one] | < 0.1 µM | **** (fold increase between >1.5 and ≤1.65) | < 300 nM | – |
| 217 to 221 °C | Cc1cn2cc(-c3cc4ccc(CCNC(CO)CO)cc4oc3=O)nc2c(C)n1 [Compound 873, 7-{2-[(1,3-dihydroxypropan-2-yl)amino]ethyl}-3-(6,8-dimethylimidazo[1,2-a]pyrazin-2-yl)-2H-chromen-2-one] | < 0.1 µM | **** (fold increase between >1.5 and ≤1.65) | 300 to 1000 nM | – |
| 230 to 233 °C | O=c1oc2cc(N3CCN4CCCCC4C3)ccc2cc1-c1cn2cccc(F)c2n1 (centres unmarked) [Compound 578, 3-(8-fluoroimidazo[1,2-a]pyridin-2-yl)-7-(octahydro-2H-pyrido[1,2-a]pyrazin-2-yl)-2H-chromen-2-one] | 1 to 3 µM | * (maximum fold increase of ≤1.2) | – | – |
| 251 to 256 °C | Cc1cn2cc(-c3cc4ccc(N5CCC(NC(CO)CO)CC5)cc4oc3=O)nc2c(C)n1 [Compound 929, 7-{4-[(1,3-dihydroxypropan-2-yl)amino]piperidin-1-yl}-3-(6,8-dimethylimidazo[1,2-a]pyrazin-2-yl)-2H-chromen-2-one] | < 0.1 µM | *** (fold increase between >1.35 and ≤1.5) | 1000 to 3000 nM | – |
| 297 to 300 °C | Cc1ccn2cc(-c3cc4ccc(N5CCN[C@H](C)C5)cc4oc3=O)nc2n1 [Compound 228, 3-(7-methylimidazo[1,2-a]pyrimidin-2-yl)-7-[(3R)-3-methylpiperazin-1-yl]-2H-chromen-2-one] | 0.1 to 0.3 µM | ** (fold increase between >1.2 and ≤1.35) | – | – |

| Structure (SMILES) | melting point | EC (1.5-fold) [1, 3] | maximum fold (Fold) increase of Smn protein [2] | EC1.5x (concentration giving 1.5-fold Smn protein increase) [2] | EC (1.5-fold) ([1]; 24 h) |
| --- | --- | --- | --- | --- | --- |
| Cc1cn2cc(-c3cc4ccc(NC5C[C@H]6CCC[C@@H](C5)N6C)cc4oc3=O)cc2c(C)n1 (stereo partly drawn) [Compound 728, 3-(1,3-dimethylpyrrolo[1,2-a]pyrazin-7-yl)-7-{[(1R,5S)-9-methyl-9-azabicyclo[3.3.1]non-3-yl]amino}-2H-chromen-2-one] | 235 to 238 °C | – | * (maximum fold increase of ≤1.2) | – | 0.3 to 1 µM |

Reference: patent publication USRE47689E1, “Compounds for treating spinal muscular atrophy” (PTC Therapeutics, Inc., priority 2011, dated 2019)
